Entries after “also recorded” stand apart in the source; their conditions may differ. Like-named read-outs stand apart in the source and are kept apart here. Ends that are not written are not given here.
How the values were obtained:
[1] = tested on: explanted DRG; assay: Neurite outgrowth from explanted DRG cultures (Example 3); assay type: cell-based, C57/B16 mice; conditions: for neurite outgrowth relative to non-treated cultures / INGAP peptide-stimulated neurite outgrowth after preincubation with anti-NGF antibody: INGAP peptide 1000 ng/mL; for neurite outgrowth relative to non-treated cultures: NGF 50 ng/mL, 17-β-estradiol 10 nM, 4 and 7 days; for overall length and density of neurite outgrowth vs non-treated DRG: 4 days in culture; for neurite outgrowth in combination with 17-β-estradiol vs either drug alone: INGAP peptide 1000 ng/mL + 17-β-estradiol 10 nM; for neurite outgrowth in combination with NGF vs INGAP peptide alone: INGAP peptide 1000 ng/mL + NGF 50 ng/mL; for INGAP peptide-stimulated neurite outgrowth after preincubation with anti-NGF antibody: cultures pre-incubated with anti-NGF antibody
Description: (§1) DRG (L3, L4, L5) were dissected from wild-type C57/B16 mice <, and DRG explants were cultured in […] of Matrigel at 37° C. (5% CO2) for 24 h in phenol-red free RPMI 1640 media-free supplemented with 1% penicillin/streptomycin. Neurite outgrowth was followed for 7 days and was visualized with an OLYMPUS™ BX51 system microscope equipped with a Dage-MTI CCD300-RC camera coupled to a Powermate™ 8100 Pentium™III computer (NEC Corp.) with 128 MB RAM. Bright-field microscope images were stored in uncompressed tagged image file format (TIFF) at a resolution of 600 d.p.i. and analyzed using MCID-M5+5.1 image analysis software (Imaging Research Inc.) and SYSTAT 9 statistical software (SPSS Inc.).
(§2) In all experiments, statistical significance was determined using one-way ANOVA and post-hoc Dunnett's test. The experimental group size was n=4-5, and differences were considered significant where P<0.05.

[2] = tested on: explanted DRG; assay: MTT assay, mitochondrial activity in explanted DRG (Example 3); assay type: cell-based, C57/B16 mice
Description: as §1
For cell viability assays, MTT was dissolved in phosphate buffered saline (1.9 mM NaH2PO4, 8.1 mM Na2HPO4, 154 mM NaCl) and applied to DRG explant cultures at a concentration of 1.2 mM for 2 h at (37° C., 5% CO2). Media were then aspirated, and each DRG explant was incubated in […] of DMSO for 1 h. […] of DMSO from each explant was transferred to a 96-well plate and absorbance at 595 nm was read on a Bio-Rad Benchmark plate reader.
as §2

[3] = tested on: DRG explant cultures; assay: MTT assay of DRG cell viability (Example 2); assay type: cell-based, Balb/C mice
Description: Using DRG explant cultures, we examined the effects of the INGAP peptide of the present invention, as well as other agents, on DRG cell viability using the MTT assay (FIG. 2). DRG (L3, L4) were dissected from Balb/C mice, and DRG explants were cultured in 14 uL of Matrigel in 2 ml of RPMI 1640 media+1% antibiotic. After 48 hours, INGAP, β-estradiol, and/or FK506 were added to the explant cultures as indicated. MTT assay was performed 7 days after the addition of drugs. Data were analyzed using one-way ANOVA with post-hoc Tuckey” test. Differences were consider significant where p<0.05. (n=3-4 per treatment group).

[4] = tested on: cells associated with the ductal epithelium; conditions: normal, adult mouse; cited from earlier work
[5] = tested on: DRG explants; assay: [3H]thymidine incorporation in DRG explants (Example 3); assay type: cell-based, C57/B16 mice; conditions: 4 days in culture; for [3H] thymidine incorporation relative to non-treated controls: 100 ng/mL
Description: as §1
For [3H]thymidine incorporation assays, serum-starved DRG ex-plants cultured in Matrigel were exposed to Ingap (100-1000 ng/mL) for 48 h. 1 p Ci/ml of [3H]thymidine was added to each DRG and kept for an additional 48 h, after which time the DRG were washed four times with ice-cold trichloroacetic acid (10%). Ganglia were lysed on ice in 100pL of tissue solubilizer (NCS-II, Amersham). Lysates were transferred to individual 4 mL scintillation counting vials, and 4 mL of liquid scintillation counting cocktail (Fischer SX25-5 ScintiSafe Plus 50%) was added to each lysate. Counting was performed on a Wallac 1410 liquid scintillation counter.
as §2

[6] = tested on: cells associated with the ductal epithelium; conditions: normal, adult hamster; cited from earlier work
[7] = tested on: dorsal route ganglia (DRG) explant cultures; assay: Neurite outgrowth in DRG explant cultures (Example 1); assay type: cell-based, male C57BL/6 mice; conditions: DRG explants
Description: Using male C57BL/6 mice, dorsal route ganglia (DRG) explant cultures were established to examine the effect of the INGAP peptide of the present invention on neurite outgrowth (FIG. 1). DRG (L3, L4) were dissected from male C57BL/6 mice, and DRG explants were cultured in 14 uL of Matrigel in 2 ml of RPMI 1640 media+1% antibiotic.

C[C@]12CC[C@@H]3c4ccc(O)cc4CC[C@H]3[C@@H]1CC[C@@H]2O [17-β-estradiol, reference compound]
neurite outgrowth relative to non-treated cultures [1]: strong neurite outgrowth

GLHDPSHGTLPNGSG [15-amino-acid fragment (amino acids 104-118) of Islet Neogenesis Associated Protein]
neurite outgrowth vs non-treated DRG ([1]; 100 ng/mL, any time point examined): No effects | neurite outgrowth vs non-treated DRG ([1]; 100 ng/mL, any time point examined, listed as INGAP): did not have a significant effect | overall length and density of neurite outgrowth vs non-treated DRG ([1]; 500 ng/mL, listed as INGAP): significant enhancement | overall length and density of neurite outgrowth vs non-treated DRG ([1]; 500 ng/mL): Significant effects | neurite outgrowth vs non-treated DRG ([1]; 1000 ng/mL, 7 days in culture): continued to significantly enhance neurite outgrowth | overall length and density of neurite outgrowth vs non-treated DRG ([1]; 1000 ng/mL): Significant effects | overall length and density of neurite outgrowth vs non-treated DRG ([1]; 1000 ng/mL, listed as INGAP): significant enhancement | neurite outgrowth vs non-treated DRG ([1]; 24 h, regardless of the drug concentration): no significant differences | optimal dose for neurite outgrowth ([1]; DRG explants): 1000 ng/mL | neurite outgrowth in combination with 17-β-estradiol vs either drug alone [1]: No significant enhancement | neurite outgrowth in combination with 17-β-estradiol vs either drug alone ([1]; listed as INGAP): not significantly different | neurite outgrowth in combination with NGF vs INGAP peptide alone [1]: enhances neurite outgrowth | neurite outgrowth in combination with NGF vs INGAP peptide alone ([1]; listed as INGAP): Enhanced effects on neurite outgrowth | neurite outgrowth relative to non-treated cultures [1]: strong neurite outgrowth; also recorded: stimulates neurite outgrowth from the DRG explants, to an extent similar to that of the prototypical growth factor | neurite outgrowth relative to non-treated cultures ([1]; listed as INGAP): stimulates neurite outgrowth to an extent similar to that of NGF | INGAP peptide-stimulated neurite outgrowth after preincubation with anti-NGF antibody [1]: marked reduction | INGAP peptide-stimulated neurite outgrowth after preincubation with anti-NGF antibody ([1]; listed as INGAP): strong reduction | mitochondrial activity (MTT reduction) vs non-treated controls ([2]; 1000 ng/mL, 4 days in culture): significant increase in mitochondrial activity | mitochondrial activity (MTT reduction) vs non-treated controls ([2]; 1000 ng/mL, 4 days in culture, listed as INGAP): significantly larger MTT reduction | mitochondrial activity (MTT reduction) vs non-treated controls ([2]; 100, 500, 1000 ng/mL, 24 h in culture): no significant effects | mitochondrial activity (MTT reduction) vs non-treated controls ([2]; 100, 500, 1000 ng/mL, 24 h in culture, listed as INGAP): no significant effect | mitochondrial activity (MTT reduction) vs non-treated controls ([2]; 500 and 1000 ng/mL, 7 days in culture, P>0.05): trend toward enhanced cell viability | MTT reduction (cell viability) ([3]; doses 100 ng/mL to 1,500 ng/mL, MTT 7 days after addition of drugs): tremendous increase in MTT reduction | dose of maximal effect on MTT reduction ([3]; no significant change with 1000 or 1,500 ng/mL): 500 ng/mL | islet-cell neogenesis, new islet formation [4]: potent inducer of islet-cell neogenesis | [3H] thymidine incorporation relative to non-treated controls [5]: no significant effects | [3H] thymidine incorporation relative to non-treated controls ([5]; listed as INGAP): no significant effect | increase in [3H] thymidine incorporation relative to non-treated controls ([5]; 500 ng/mL): 3 fold | islet-cell neogenesis, new islet formation [6]: potent inducer of islet-cell neogenesis | neurite-promoting effect compared with nerve growth factor (NGF) [7]: comparable | neurite-promoting effect ([7]; FIG. 1): effective, in a dose-dependent fashion, as a neurite-promoting agent

NGF: conventional neurotrophic agent, nerve growth factor [reference compound]
neurite outgrowth relative to non-treated cultures [1]: strong neurite outgrowth

From US20040158036A1, “Neuritogenic compound and uses thereof” (priority 2004, published 2004)
